Test results reported in ChEMBL document CHEMBL1201862, “PubChem BioAssay data set” (2004).
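Test compounds were applied to cells in 96-well plates for 48 hours at 5 doses. GI50 = concentration required for 50% inhibition of growth.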 Active and inactive are the calls of the source. Cut-off read from the data, not from the text of the source: active = GI50 up to about 1.1 µM and inactive = higher.

Key:
Test in all cases: NCI tumour cell line growth inhibition, 48 h
[1] = tested on: HCC 2998
[2] = tested on: NCI-H460
[3] = tested on: TK-10
[4] = tested on: UO-31
[5] = tested on: HT-29
[6] = tested on: HOP-92
[7] = tested on: SK-MEL-28
[8] = tested on: SK-MEL-2
[9] = tested on: HCT-15
[10] = tested on: Malme-3M
[11] = tested on: OVCAR-8
[12] = tested on: COLO 205
[13] = tested on: OVCAR-4
[14] = tested on: M14
[15] = tested on: HL-60
[16] = tested on: SK-OV-3
[17] = tested on: SF-539
[18] = tested on: LOX IMVI
[19] = tested on: A498

Row | SMILES | GI50 [1] | GI50 [2] | GI50 [3] | GI50 [4] | GI50 [5] | GI50 [6] | GI50 [7] | GI50 [8] | GI50 [9] [µM] | GI50 [10] | GI50 [11] | GI50 [12] | GI50 [13] | GI50 [14] | GI50 [15] | GI50 [16] | GI50 [17] | GI50 [18] | GI50 [19]
1 | NC1=NS(=O)(=O)N=C(N)C1=Cc1ccc([N+](=O)[O-])o1 | 22.1 µM (inactive) | 17.9 µM (inactive) | 18.6 µM (inactive) | 17.9 µM (inactive) | 18.2 µM (inactive) | 13.8 µM (inactive) | 16 µM (inactive) | 16.1 µM (inactive) | 16.8 | 16 µM (inactive) | 17.3 µM (inactive) | 15.7 µM (inactive) | 19.9 µM (inactive) | 14 µM (inactive) | 5.51 µM (inactive) | 35 µM (inactive) | 18.3 µM (inactive) | 17.2 µM (inactive) | 
2 | O=C(NCO)NCOCn1c(=O)n(CO)c(=O)n(CO)c1=O | > 100 µM (inactive) | 33.1 µM (inactive) | > 100 µM (inactive) | > 100 µM (inactive) | 32.6 µM (inactive) |  | 22.1 µM (inactive) | 17.9 µM (inactive) | 23.8 | 31.5 µM (inactive) | 32.9 µM (inactive) | 27.4 µM (inactive) | 32.1 µM (inactive) | 17.1 µM (inactive) | 22.3 µM (inactive) | 99.8 µM (inactive) | > 100 µM (inactive) | 19 µM (inactive) | > 100 µM (inactive)
3 | CCN(CC)C(=S)N/N=C1\C(=O)Nc2ccccc21 |  | 0.406 µM (active) | 0.348 µM (active) |  | 1.18 µM (inactive) | 2.79 µM (inactive) | > 100 µM (inactive) | 2.65 µM (inactive) | 0.413 | 0.298 µM (active) | 0.813 µM (active) | 0.659 µM (active) | 0.771 µM (active) | 0.586 µM (active) | 0.338 µM (active) | 3.05 µM (inactive) | 0.468 µM (active) | 0.495 µM (active) | 1.25 µM (inactive)
4 | C[C@]12CC(c3ccccc3O1)C(C(=O)NC13CC4CC(CC(C4)C1)C3)C(=O)N2 (stereo partly specified) | 29 µM (inactive) | 35.4 µM (inactive) | 70.1 µM (inactive) | 20 µM (inactive) | 16.1 µM (inactive) | 20.7 µM (inactive) | 28.3 µM (inactive) | 19.9 µM (inactive) | 25.9 | 33 µM (inactive) | 26.6 µM (inactive) | 15.6 µM (inactive) | 52.6 µM (inactive) | 15.6 µM (inactive) |  | 64.9 µM (inactive) |  | 23.4 µM (inactive) | 39.9 µM (inactive)
5 | N#[N+][c-]1c(-c2ccccc2)n[nH]c1=O | > 100 µM (inactive) | > 100 µM (inactive) | > 100 µM (inactive) |  | > 100 µM (inactive) | > 100 µM (inactive) | > 100 µM (inactive) | > 100 µM (inactive) | > 100 | > 100 µM (inactive) | > 100 µM (inactive) | > 100 µM (inactive) | > 100 µM (inactive) | > 100 µM (inactive) | > 100 µM (inactive) | > 100 µM (inactive) | > 100 µM (inactive) | > 100 µM (inactive) | 
6 | BrC12C3C4C5C(C(C43)C13OCCO3)C52 (stereo unspecified) | > 100 µM (inactive) | > 100 µM (inactive) | > 100 µM (inactive) | > 100 µM (inactive) | > 100 µM (inactive) | 58.1 µM (inactive) | > 100 µM (inactive) | > 100 µM (inactive) |  | > 100 µM (inactive) | > 100 µM (inactive) | > 100 µM (inactive) |  |  | > 100 µM (inactive) | > 100 µM (inactive) | > 100 µM (inactive) | > 100 µM (inactive) | > 100 µM (inactive)
7 | COc1ccc(/C=C/C(=O)c2sc(-c3cccnc3)nc2C)cc1 | 37.5 µM (inactive) | 53.5 µM (inactive) | 38.6 µM (inactive) | 41.7 µM (inactive) | 36.9 µM (inactive) | 81.5 µM (inactive) | 94 µM (inactive) | 38.4 µM (inactive) | 45.3 | 62.8 µM (inactive) | 35.7 µM (inactive) | 48.3 µM (inactive) |  |  | 20.4 µM (inactive) | 82.6 µM (inactive) | 21.1 µM (inactive) | 25.1 µM (inactive) | > 100 µM (inactive)
8 | COC(=O)/C(C#N)=C1\CCC(OC)N1C (stereo unspecified) | > 100 µM (inactive) | > 100 µM (inactive) | > 100 µM (inactive) | > 100 µM (inactive) | > 100 µM (inactive) |  | > 100 µM (inactive) | > 100 µM (inactive) | > 100 | > 100 µM (inactive) | > 100 µM (inactive) | > 100 µM (inactive) | > 100 µM (inactive) | > 100 µM (inactive) | > 100 µM (inactive) | > 100 µM (inactive) | > 100 µM (inactive) | > 100 µM (inactive) | 
9 | O=C1C(c2ccccc2)=[N+]([O-])c2ccc(Cl)cc21 |  | 42.4 µM (inactive) | 29.2 µM (inactive) | 43.3 µM (inactive) | 22 µM (inactive) | 0.0256 µM (active) | 20 µM (inactive) | > 100 µM (inactive) | 20 | 26.2 µM (inactive) | 15 µM (inactive) | 14.1 µM (inactive) |  | 27.8 µM (inactive) | 10.6 µM (inactive) | > 100 µM (inactive) | 20.2 µM (inactive) | 18.4 µM (inactive) | > 100 µM (inactive)
10 | c1ccc(CN2CCC3(CC2)SSC2(CCN(Cc4ccccc4)CC2)S3)cc1 | 26.9 µM (inactive) | 25.6 µM (inactive) | 64.4 µM (inactive) | > 100 µM (inactive) | 17.6 µM (inactive) | > 100 µM (inactive) | 44 µM (inactive) | 76.7 µM (inactive) | 38.8 | 53.7 µM (inactive) | > 100 µM (inactive) | 17 µM (inactive) | 52.4 µM (inactive) | 66.5 µM (inactive) | 78 µM (inactive) | > 100 µM (inactive) | > 100 µM (inactive) | 48.8 µM (inactive) | 
11 | CCOC(=O)CCC(=O)C1c2cccc(O)c2C(=O)c2c(O)cccc21 | 0.537 µM (active) | 0.26 µM (active) | 2.38 µM (inactive) | 0.356 µM (active) | 2.74 µM (inactive) | 1.49 µM (inactive) | 1.33 µM (inactive) |  |  | 1.78 µM (inactive) | 1.58 µM (inactive) | 2.01 µM (inactive) | 0.611 µM (active) | 0.566 µM (active) | 0.223 µM (active) |  | 0.411 µM (active) | 0.604 µM (active) | 
12 | CC(C)c1ccccc1NC(=O)CCC(=O)NN |  |  | > 100 µM (inactive) | > 100 µM (inactive) |  | > 100 µM (inactive) | > 100 µM (inactive) | > 100 µM (inactive) | > 100 | > 100 µM (inactive) |  |  |  | > 100 µM (inactive) | > 100 µM (inactive) | > 100 µM (inactive) | > 100 µM (inactive) | > 100 µM (inactive) | 
13 | Cc1ccc2nc(NC(=O)C(=O)C(C#N)c3nc4ccccc4s3)sc2c1 (stereo unspecified) | 79.8 µM (inactive) | 34 µM (inactive) | 30.8 µM (inactive) | 39.8 µM (inactive) | 26.8 µM (inactive) | 26.4 µM (inactive) | 51.8 µM (inactive) | 32.4 µM (inactive) | 32 | 43.7 µM (inactive) | 30.4 µM (inactive) | 18 µM (inactive) | 39 µM (inactive) | 33.8 µM (inactive) |  | 55.8 µM (inactive) | 22.3 µM (inactive) | 37.2 µM (inactive) | 19.5 µM (inactive)
14 | CSc1sc(=S)sc1C(=O)N(C)c1ccccc1 |  | > 100 µM (inactive) | > 100 µM (inactive) | > 100 µM (inactive) | > 100 µM (inactive) |  | > 100 µM (inactive) | > 100 µM (inactive) | > 100 | > 100 µM (inactive) | > 100 µM (inactive) | > 100 µM (inactive) | > 100 µM (inactive) | > 100 µM (inactive) | 35.6 µM (inactive) |  | > 100 µM (inactive) | > 100 µM (inactive) | 
15 | CC1(C)Oc2ccccc2N2O[C@@H]3C(=O)N(c4ccccc4)C(=O)[C@@H]3C21c1ccccc1 (stereo partly specified) | > 100 µM (inactive) | 28.9 µM (inactive) | 17.9 µM (inactive) | 66.1 µM (inactive) | 29 µM (inactive) |  | 29.2 µM (inactive) | 23.1 µM (inactive) |  | 21.8 µM (inactive) | > 10 µM (inactive) | 39.1 µM (inactive) | 17.9 µM (inactive) | 20.7 µM (inactive) | > 10 µM (inactive) | 22.1 µM (inactive) | 17.3 µM (inactive) |  | 20.8 µM (inactive)
16 | CCN(CC)C(=O)CCn1ccc(=O)[nH]c1=O |  | > 100 µM (inactive) | > 100 µM (inactive) | > 100 µM (inactive) | > 100 µM (inactive) |  | > 100 µM (inactive) | > 100 µM (inactive) | > 100 | > 100 µM (inactive) | > 100 µM (inactive) | > 100 µM (inactive) | > 100 µM (inactive) | > 100 µM (inactive) | > 100 µM (inactive) |  | > 100 µM (inactive) | > 100 µM (inactive) | 
17 | CC(=O)O[C@@H]1CC(C)C2CC2C2=C(C(O)OC2O)[C@@H]1C(C)CCC=C(C)C (stereo partly specified) | 20.8 µM (inactive) | 20 µM (inactive) | 33.3 µM (inactive) | 22.2 µM (inactive) | 19 µM (inactive) | 12.8 µM (inactive) | 36.7 µM (inactive) | 29.9 µM (inactive) | 22 | 27.8 µM (inactive) | 27 µM (inactive) | 18.2 µM (inactive) | 24.4 µM (inactive) | 31 µM (inactive) | 20.4 µM (inactive) |  | 18.9 µM (inactive) | 20.8 µM (inactive) | 35.7 µM (inactive)
